Data reported in patent publication US11161845B2, “Pyrrolopyridine-aniline compounds for treatment of dermal disorders” (Nflection Therapeutics, Inc., priority 2017, dated 2021).

How the values were obtained:
[1] = test system: A375 cells; assay: A375 (BRAF) GI50 cell-based assay (Cell Titer-Glo); conditions: Homo sapiens, A-375; 72 hours; read-out: Assay 2: A375 (BRAF) GI50
Protocol: (§1) Alternatively, the following procedure can be used to measure cell-based activity. Test compounds were dissolved in DMSO in 10 mM stock. Cell Titer-Glo® 2.0 Luminescent cell viability assay reagent was purchased from Promega (Madison, Wis.). A375 and HCT116 cell lines were purchased from American Type Culture Collection (Manassas, Va.). For A375 cells, cell culture media was DMEM+10% FBS. For HCT116 cells, cell culture media was McCoy's 5A+10% FBS. All media were supplemented with 100 μg/mL of penicillin, and 100 μg/mL of streptomycin. Cultures were maintained at 37° C. in a humidified atmosphere of 5% CO2 and 95% air.
(§2) Test compounds were diluted in DMSO solution with 10-dose and 3-fold dilutions in a source plate starting at 10 mM. 25 nL of each test compound was delivered from the source plate to each well of the 384-well cell culture plates (T=Final) by Echo 550. 25 μL of culture medium containing 2000 of A375 or HCT116 cells was added to each of the wells in duplicates of the cell culture plates (T=0 and T=Final). 25 μL of Cell Titer Glo 2.0 reagent was added to each well of cell culture plate (T=0). The contents were mixed on an orbital shaker for 2 min and incubated at room temperature for 15 min to stabilize luminescent signal. Luminescence was recorded by Envision 2104 Multilabel Reader (PerkinElmer, Santa Clara, Calif.). The number of viable cells in culture was determined based on quantitation of the ATP present in each culture well. The cells in cell culture plate (T=Final) were incubated with the compounds at 37° C., 5% CO2 for 72 hours. 25 μL of Cell Titer Glo 2.0 reagent was added to each well. The contents were mixed on an orbital shaker for 2 min and incubated at room temperature for 15 min to stabilize luminescent signal. Luminescence was recorded by Envision 2104 Multilabel Reader (PerkinElmer, Santa Clara, Calif.). The number of viable cells in culture was determined based on quantitation of the ATP present in each culture well. The G150 curves were plotted using the GraphPad Prism 4 program based on a sigmoidal dose-response equation Y=Bottom+(Top−Bottom)/(1+10^((Log EC50−X)*HillSlope)). All parameters in the equation were calculated by GraphPad Prism 4 program. […] Accordingly, GI50 is the value of 10^X, where X was calculated by the Curve Fitting Equation when Y=50 using Excel.

[2] = test system: HCT116 cells; assay: HCT116 (Kras) GI50 cell-based assay (Cell Titer-Glo); conditions: Homo sapiens, HCT-116; 72 hours; read-out: Assay 3: HCT116 (Kras) GI50
Protocol: as §1, §2

[3] = S9 stability assay, human liver S9 fraction; type: in vitro ADME
Outline: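 Incubation at 37 °C of 1 μM compound with 2 mg/mL human liver S9 protein and 1 mM NADPH in 100 mM potassium phosphate pH 7.4 (1 mM EDTA, 3 mM MgCl2), sampled at 0, 15, 30, 60 min. Parent loss by LC/MS/MS gave t1/2 and CLint = 0.693/t1/2 × mL incubation/mg S9 protein.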

[4] = Plasma LCMS compound levels, in vivo mouse model; set-up: species or system mice; conditions: for concentration at 1 h / concentration at 2 h: male, C57BL/6J, mouse, plasma; for concentration at 1 h: 1 h after final application; for concentration at 2 h: 2 h after final application; for Plasma LCMS Compound Levels: pre-dose (16 h)
Protocol: These mice were also shaved weekly.
(§3) Week 4 (Experiment end): Skin and blood were collected right before the last morning dose (N=3), 1 hour (N=3 mice), and 2 hours (N=3 mice) after final application; Blood draw: Plasma compound levels (LCMS); Skin biopsy: formalin fixed for histology and p-ERK staining, flash frozen for Western analysis and skin compound levels (LCMS)
(§4) Compound level analysis: Liquid chromatography with mass spectrometry method (LCMS) was used to detect compound levels in the skin and plasma. Tissues were preprocessed prior to LCMS as follows. Tissues were minced and incubated with collagenase and then finally homogenized using the stainless steel beads prior to LCMS analysis. Calibration curves and a QC test were run with each assay.

[5] = Compound levels in neck/back skin (LCMS), in vivo mouse model; set-up: species or system mice; conditions: for concentration at 1 h / concentration at 2 h: male, C57BL/6J, mouse, neck/back skin; for concentration at 1 h: 1 h after final application; for concentration at 2 h: 2 h after final application; for Compound Levels in Neck/Back Skin: pre-dose (16 h)
Protocol: as §3
Skin biopsy and GI tract sampling: Skin was wiped down with 100% ethanol and a 1 cm^2 biopsy was obtained from compound application site each mouse at the 25 day end of experiment (except as noted below). The skin was biopsied prior to final dose from 3 mice, 1 hour after last compound application from 3 mice, 2 hours after last compound application from 3 mice. Half of the specimen were immediately flash frozen for LCMS analysis and Western Blot Analysis. Half of the specimen was fixed for 24 hours in 10% formalin and then transferred to ethanol for immunohistochemistry. Gastrointestinal tract was also formalin fixed overnight then transferred to 70% ETOH for storage.
as §4

In the case of Cn1c(Nc2ccc(I)cc2F)c(C(=O)NOCCO)c2cccnc21 [Example 2, 2-((2-Fluoro-4-iodophenyl)amino)—N-(2-hydroxyethoxy)-1-methyl-1H-pyrrolo[2,3-b]pyridine-3-carboxamide], the GI50 [1] is reported as 63 nM, the GI50 [2] is reported as 196 nM and the “Assay 5: human liver S9 instrinsic clearance value” ([3]; Table 2, 1 μM, 2 mg/mL S9 protein, NADPH) is reported as 21.45 μL/min/mg protein. For the same molecule, the microsomal CLint at 1 μM ([3]; pH 7.4, Table 1, human liver S9 fraction, read-out: CLint) was 21.4 µL/min/mg, the half-life at 1 μM ([3]; pH 7.4, Table 1, human liver S9 fraction, read-out: Liver S9 t1/2) was 16 min and the concentration at 1 h ([4]; topical 0.1%) was 174 ng/mL. It also gave a concentration at 2 h ([4]; topical 0.1%) of 37.9 ng/mL, a concentration at 1 h ([4]; topical 0.5%) of 1040 ng/mL and a concentration at 2 h ([4]; topical 0.5%) of 102 ng/mL. For the same molecule, the concentration at 1 h ([4]; topical 1%) was 1020 ng/mL, the concentration at 2 h ([4]; topical 1%) was 262 ng/mL and the “Plasma LCMS Compound Levels” value ([4]; topical 0.1%) was 1.18 ng/mL. The “Plasma LCMS Compound Levels” value ([4]; topical 0.5%) was 4.78 ng/mL, the “Plasma LCMS Compound Levels” value ([4]; topical 1%) was 24.98 ng/mL and the concentration at 1 h ([5]; topical 0.1%) was 14000 ng/mL. For the same molecule, the concentration at 2 h ([5]; topical 0.1%) was 4880 ng/mL, the concentration at 1 h ([5]; topical 0.5%) was 289000 ng/mL and the concentration at 2 h ([5]; topical 0.5%) was 81600 ng/mL. For the same molecule, the concentration at 1 h ([5]; topical 1%) was 683000 ng/mL, the concentration at 2 h ([5]; topical 1%) was 378000 ng/mL and the “Compound Levels in Neck/Back Skin” value ([5]; topical 0.1%) was 5620 ng/mL. For the same molecule, the “Compound Levels in Neck/Back Skin” value ([5]; topical 0.5%) was 49170 ng/mL and the “Compound Levels in Neck/Back Skin” value ([5]; topical 1%) was 14730 ng/mL.
